pIC50: −log10 of the molar value. Where two headings read alike, the source gives them in different places.
Legend:
Format in all cases: cell-based
[1] = system: IL6; assay: IL-6 Quantification Assay (ELISA), LPS-stimulated RAW 264.7; set-up: inhibition: dose or concentration left out as unconfirmed; conditions: Mus musculus, RAW264.7; read-out: IL-6: % inh.
[2] = system: TNF-alpha; assay: TNF-alpha Quantification Assay (ELISA), LPS-stimulated RAW 264.7; conditions: Mus musculus, RAW264.7; at 10 μM; read-out: TNFα: % inh.
[3] = system: MiaPaca-2 (expressing KRAS G12C mutant); assay: Proliferation Assay (Cell Viability Assay); conditions: Homo sapiens, MIA PaCa-2; for pIC50: read-out: Proliferation in MiaPaca-2: IC50; for IC50: Proliferation assay, MiaPaca-2, read-out: MiaPaca-2 IC50 (nM) Pancreatic
Procedure, shortened: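 MiaPaca-2 cells (KRAS G12C) were grown in DMEM-high glucose with 10% FBS, seeded at 2000–5000 cells/well and cultured overnight. Compounds were added at 10 μM final, or as serial dilutions for IC50, in 0.3% DMSO/10% FBS for 2–4 days at 37 °C, 5% CO2. Viability was measured with CellTiter 96 Aqueous One and % inhibition calculated.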

| pIC50 [3] | IC50 [3] [nM] | SMILES | inhibition [1] [%] | inhibition at 10 µM [2] [%] |
| --- | --- | --- | --- | --- |
| < 6.00 | – | Cc1c(-c2ccn(C)n2)cn2nc(-c3nccn3C)nc(Nc3ccc(C(C)(C)O)cn3)c12 [Compound 241, 2-(6-((5-Methyl-2-(1-methyl-1H-imidazol-2-yl)-6-(1-methyl-1H-pyrazol-3-yl)pyrrolo[2,1-f][1,2,4]triazin-4-yl)amino)pyridin-3-yl)propan-2-ol] | 25 to 49 | 1 to 24 |
| < 6.00 | – | Cc1c(-c2ccn(C)n2)cn2nc(-c3nccn3C)nc(Nc3ccc(-n4ccnc4)cn3)c12 [Compound 242, N-(5-(1H-Imidazol-1-yl)pyridin-2-yl)-5-methyl-2-(1-methyl-1H-imidazol-2-yl)-6-(1-methyl-1H-pyrazol-3-yl)pyrrolo[2,1-f][1,2,4]triazin-4-amine] | 25 to 49 | 0 |
| > 6.82 | – | Cc1c(-c2ccn(C)n2)cn2nc(-c3nccn3C)nc(Nc3ccc(-n4ccnc4C)cn3)c12 [Compound 243, 5-Methyl-N-(5-(2-methyl-1H-imidazol-1-yl)pyridin-2-yl)-2-(1-methyl-1H-imidazol-2-yl)-6-(1-methyl-1H-pyrazol-3-yl)pyrrolo[2,1-f][1,2,4]triazin-4-amine] | 0 | 0 |

Further lines, the compound ahead of its results:

| SMILES | pIC50 [3] | IC50 [3] [nM] | inhibition [1] [%] | inhibition at 10 µM [2] [%] |
| --- | --- | --- | --- | --- |
| Cc1c(-c2ccn(C)n2)cn2nc(-c3nccn3C)nc(Nc3ccc(C(F)F)cn3)c12 [Compound 234, N-(5-(Difluoromethyl)pyridin-2-yl)-5-methyl-2-(1-methyl-1H-imidazol-2-yl)-6-(1-methyl-1H-pyrazol-3-yl)pyrrolo[2,1-f][1,2,4]triazin-4-amine] | > 6.82 | – | 1 to 24 | 1 to 24 |
| COc1cc(Nc2nc(-c3nccn3C)nn3cc(-c4ccn(C)n4)c(C)c23)ncc1C [Compound 235, N-(4-Methoxy-5-methylpyridin-2-yl)-5-methyl-2-(1-methyl-1H-imidazol-2-yl)-6-(1-methyl-1H-pyrazol-3-yl)pyrrolo[2,1-f][1,2,4]triazin-4-amine] | > 6.82 | 1 to 10 | 50 to 84 | 0 |
| COc1cnc(Nc2nc(-c3nccn3C)nn3cc(-c4ccn(C)n4)c(C)c23)cc1C [Compound 236, N-(5-Methoxy-4-methylpyridin-2-yl)-5-methyl-2-(1-methyl-1H-imidazol-2-yl)-6-(1-methyl-1H-pyrazol-3-yl)pyrrolo[2,1-f][1,2,4]triazin-4-amine] | 6.30 to 6.82 | – | 0 | 0 |
| COc1cc(Nc2nc(-c3nccn3C)nn3cc(-c4ccn(C)n4)c(C)c23)ncc1F [Compound 237, N-(5-Fluoro-4-methoxypyridin-2-yl)-5-methyl-2-(1-methyl-1H-imidazol-2-yl)-6-(1-methyl-1H-pyrazol-3-yl)pyrrolo[2,1-f][1,2,4]triazin-4-amine] | > 6.82 | – | 0 | 0 |
| COc1cc(Nc2nc(-c3nccn3C)nn3cc(-c4ccn(C)n4)c(C)c23)ncc1C1CC1 [Compound 238, N-(5-Cyclopropyl-4-methoxypyridin-2-yl)-5-methyl-2-(1-methyl-1H-imidazol-2-yl)-6-(1-methyl-1H-pyrazol-3-yl)pyrrolo[2,1-f][1,2,4]triazin-4-amine] | > 6.82 | 1 to 10 | 75 to 100 | 50 to 74 |
| Cc1cnc2c(c1)CCN2c1nc(-c2nccn2C)nn2cc(-c3ccn(C)n3)c(C)c12 [Compound 239, 5-Methyl-2-(1-methyl-1H-imidazol-2-yl)-6-(1-methyl-1H-pyrazol-3-yl)-4-(5-methyl-2,3-dihydro-1H-pyrrolo[2,3-b]pyridin-1-yl)pyrrolo[2,1-f][1,2,4]triazine] | > 6.82 | – | 50 to 74 | 1 to 24 |
| Cc1c(-c2ccn(C)n2)cn2nc(-c3nccn3C)nc(Nc3cc(C(C)(C)O)ccn3)c12 [Compound 240, 2-(2-((5-Methyl-2-(1-methyl-1H-imidazol-2-yl)-6-(1-methyl-1H-pyrazol-3-yl)pyrrolo[2,1-f][1,2,4]triazin-4-yl)amino)pyridin-4-yl)propan-2-ol] | > 6.82 | – | 50 to 74 | 0 |
